Reference: patent US7074761B1, “Peptides and production and use thereof” (Takeda Chemical Ind., Ltd., priority 1996, dated 2006)
Where a SMILES comes first, the peptide text is derived from it. Bridges are numbered along the chain shown (N, C = ends).

What was measured:
human SSTR1 = biological target: T1, human SSTR1 (Homo sapiens, UniProt P30872); assay: [125I]-somatostatin binding inhibition, SSTR1 CHO cell membrane fraction; conditions: 25° C., 60 minutes
T1 construct: expressed in transfected cells; host or cells: CHO(dhfr-) cells, clone SSTR1-8-3, plasmid pA-1-11-SSTR1 (vector pAKKO-111)
T1 sequence (P30872 whole entry): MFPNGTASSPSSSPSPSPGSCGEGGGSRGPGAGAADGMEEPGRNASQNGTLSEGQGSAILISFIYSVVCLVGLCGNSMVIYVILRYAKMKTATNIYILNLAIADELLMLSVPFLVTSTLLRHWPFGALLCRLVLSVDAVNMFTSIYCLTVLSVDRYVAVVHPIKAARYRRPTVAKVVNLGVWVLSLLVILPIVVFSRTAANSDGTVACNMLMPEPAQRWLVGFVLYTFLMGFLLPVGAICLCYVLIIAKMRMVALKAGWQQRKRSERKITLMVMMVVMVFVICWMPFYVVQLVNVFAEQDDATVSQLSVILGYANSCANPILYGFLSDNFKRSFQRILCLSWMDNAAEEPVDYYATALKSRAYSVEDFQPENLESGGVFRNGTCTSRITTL
Method: CHO(dhfr^−) cells (1×10^6 cells) were cultured on HAM F12 medium containing 10% fetal bovine serum in a dish with a diameter of 8 cm for 24 hours. Into these cells was introduced 10 μg of the human SSTR1 cDNA expression plasmid pA-1-11-SSTR1 obtained as described above in (2) by the calcium phosphate method (Cell Phect Transfection Kit; Pharmacia). At 24 hours after transfection, the medium was exchanged for Dulbecco's modified Eagle's medium (DMEM) containing 10% dialyzed fetal bovine serum, and cells forming a colony on this medium (namely DHFR^+ cells) were selected. Further, the cells selected were treated by the limiting dilution method for cloning from a single cell, and the somatostatin receptor protein activity was measured in the following manner. […] The [^125I] on the filter paper was measured with a γ counter. […]
The membrane fractions prepared in Reference Example 6 were each diluted to 3 μg/ml with assay buffer. […] After filtration, the radioactivity of [^125I]-somatostatin remaining on the filter paper was measured. For each test substance, the binding inhibition percentage (%) was calculated according to the formula: PBM=(B−NSB)/(B0−NSB)×100 (where PBM: percent maximum binding; B: radioactivity when the test sample is added; B0: maximum bound radioactivity; NSB: non-specifically bound radioactivity). […]

human SSTR5 = biological target: T2, human SSTR5 (Homo sapiens, UniProt P35346); assay: cAMP accumulation inhibiting activity in SSTR5 expressing CHO cells (forskolin stimulated); assay type: cell-based; conditions: forskolin 10 μM, CHO cells SSTR5-32-4; read-out: ED50, inhibition of intracellular cAMP accumulation, SSTR5
T2 construct: expressed in transfected cells; host or cells: CHO(dhfr-) cells, clone SSTR5-32-4, plasmid pA-1-11-SSTR5 (vector pAKKO-111)
T2 sequence (P35346 whole entry): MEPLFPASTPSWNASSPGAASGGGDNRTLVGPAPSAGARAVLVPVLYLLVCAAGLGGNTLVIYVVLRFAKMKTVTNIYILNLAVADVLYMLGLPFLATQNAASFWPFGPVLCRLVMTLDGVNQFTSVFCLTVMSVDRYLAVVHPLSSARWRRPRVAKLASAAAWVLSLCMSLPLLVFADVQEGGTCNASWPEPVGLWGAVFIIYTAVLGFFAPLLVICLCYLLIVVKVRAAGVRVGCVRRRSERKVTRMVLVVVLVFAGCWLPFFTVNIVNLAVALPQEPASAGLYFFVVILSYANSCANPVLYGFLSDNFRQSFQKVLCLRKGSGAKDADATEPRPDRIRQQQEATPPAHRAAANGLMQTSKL
Method: For measuring the intracellular accumulations of cyclic adenosine 3′,5′-monophosphate (cAMP), the human somatostatin receptor expressing cell lines SSTR2-HS5-9, SSTR3-15-19, SSTR4-1-2 and SSTR5-32-4 respectively described in Reference Example 2 (3), Reference Example 3 (3), Reference Example 4 (3) and Reference Example 5 (3) were multiplied on 24-well plates until confluency. Said cells were washed with two 1-ml portions of medium A [Dulbecco-'s modified Eagle's medium (DMEM), 20 mM 2-[4-(2-hydroxyethyl)-1-piperazinyl]ethanesulfonic acid (HEPES) (pH. 7.5), 0.2% BSA, 0.2 mM 3-isobutyl-1-methylxanthine (IBMX)] and then 400 μl of medium A was added to each well and incubation was carried out at 37° C. for 1 hour. To each well were added 50 μl of a hCS-15 or hCS-17 solution (each diluted to a concentration 10 times the final concentration with medium A) and 50 μl of a forskolin solution (final concentration: 10 μM), and incubation was carried out at 37° C. for 30 minutes. The cells were washed with two 1-ml portions of medium A and then 500 μl of medium A and 100 μL of 20% aqueous perchloric acid solution were added to each well, followed by standing at 4° C. for 20 minutes for cell lysis. […] The amount of cAMP contained in this extract was determined using an Amersham's kit (cAMP EIA system).

SMILES	IC50 (human SSTR1) [nM]	EC50 (human SSTR5) [nM]
CSCC[C@H](N)C(=O)N1CCC[C@H]1C(=O)N[C@H]1CSSC[C@@H](C(=O)N[C@@H](CCCCN)C(=O)O)NC(=O)[C@H](CO)NC(=O)[C@H](CO)NC(=O)[C@H](Cc2ccccc2)NC(=O)[C@H]([C@@H](C)O)NC(=O)[C@H](CCCCN)NC(=O)[C@H](Cc2c[nH]c3ccccc23)NC(=O)[C@H](Cc2ccccc2)NC(=O)[C@H](Cc2ccccc2)NC(=O)[C@H](CC(N)=O)NC(=O)[C@H](CCCNC(=N)N)NC1=O [hCS-15] (H-MPCRNFFWKTFSSCK-OH; disulfide 3-14; N-terminus and C-terminus assumed)	7	0.2
CSCC[C@H](NC(=O)[C@H](CCCNC(=N)N)NC(=O)[C@@H](N)CC(=O)O)C(=O)N1CCC[C@H]1C(=O)N[C@H]1CSSC[C@@H](C(=O)N[C@@H](CCCCN)C(=O)O)NC(=O)[C@H](CO)NC(=O)[C@H](CO)NC(=O)[C@H](Cc2ccccc2)NC(=O)[C@H]([C@@H](C)O)NC(=O)[C@H](CCCCN)NC(=O)[C@H](Cc2c[nH]c3ccccc23)NC(=O)[C@H](Cc2ccccc2)NC(=O)[C@H](Cc2ccccc2)NC(=O)[C@H](CC(N)=O)NC(=O)[C@H](CCCNC(=N)N)NC1=O [hCS-17]	7	0.2
